Test system: acid secretion of the perfused rat stomach stimulated by pentagastrin
Experiment: Secretion-inhibiting action on perfused rat stomach (pentagastrin-stimulated acid secretion)
Type: in vivo
Conditions: Rattus norvegicus, iv, anesthetized CD rats, female, dose 3 μmol/kg i.v.
Source text: Testing of the Secretion-inhibiting Action on Perfused Rat Stomach
In table A below, the influence of the compounds according to the invention after intravenous administration is shown on the acid secretion of the perfused rat stomach stimulated by pentagastrin.
The abdomen of anesthetized rats (CD rats, female, 200–250 g; 1.5 g/kg of i.m. urethane) was opened after tracheotomy by a median upper abdominal incision and a PVC catheter was fixed transorally in the esophagus and a further one via the pylorus such that the ends of the tubing just still projected into the gastric lumen. The catheter leading from the pylorus led outwards via a side opening in the right abdominal wall.
After thorough rinsing (about 50–100 ml), a continuous flow of warm physiological NaCl solution (0.5 ml/min, pH 6.8–6.9; Braun-Unita I) was continuously passed through the stomach at 37° C. The pH in the effluent, in each case collected at an interval of 15 minutes, was determined (pH meter 632, glass electrode EA 147; φ 5 mm, Metrohm) and the secreted HCl was determined by titration with a freshly prepared 0.01N NaOH solution to pH 7 (Dosimat 665 Metrohm).
Gastric secretion was stimulated by continuous infusion of 1 μg/kg (=1.65 ml/h) of i.v. pentagastrin (left femoral vein) about 30 min after the end of the operation (i.e. after determination of 2 preliminary fractions). The substances to be tested were administered intravenously in 1 ml/kg of fluid volume 60 min after the start of the pentagastrin continuous infusion.
The body temperature of the animals was kept at a constant 37.8–38° C. by means of infrared irradiation and heating pads (automatic, step-free control via a rectal temperature sensor).

Compound	inhibition at 3 µmol/kg [%]
COCCO[C@H]1c2ccn3c(C)c(C)nc3c2N[C@H](c2ccccc2)[C@H]1OC(C)=O [Example 1, (7S,8R,9R)-8-Acetoxy-7-(2-methoxyethoxy)-2,3-dimethyl-9-phenyl-7,8,9,10-tetra-hydroimidazo[1,2-h][1,7]naphthyridine]	100
CO[C@@H]1c2ccn3c(C)c(C)nc3c2N[C@H](c2ccccc2)[C@H]1OC(C)=O [Example 3, (7R,8R,9R)-8-Acetoxy-7-methoxy-2,3-dimethyl-9-phenyl-7,8,9,10-tetrahydro-imidazo[1,2-h][1,7]naphthyridine]	100

Same assay, conditions: anesthetized CD rats, female, dose 3 μmol/kg i.v.

Compound	Inhibition of acid secretion (%)
COCCO[C@@H]1c2ccn3c(C)c(C)nc3c2N[C@H](c2ccccc2)[C@H]1OC(C)=O [Example 2, (7R,8R,9R)-8-Acetoxy-7-(2-methoxyethoxy)-2,3-dimethyl-9-phenyl-7,8,9,1,0-tetra-hydroimidazo[1,2-h][1,7]naphthyridine]	100

Test system: not given
Experiment: not given
Conditions: not given

Compound	melting point [°C]
CO[C@@H]1c2ccn3c(C)c(C)nc3c2N[C@H](c2ccccc2)[C@H]1OC(C)=O [Example 3, (7R,8R,9R)-8-Acetoxy-7-methoxy-2,3-dimethyl-9-phenyl-7,8,9,10-tetrahydro-imidazo[1,2-h][1,7]naphthyridine]	197 to 199
CCO[C@@H]1c2ccn3c(C)c(C)nc3c2N[C@H](c2ccccc2)[C@H]1OC(C)=O [Example 4, (7R,8R,9R)8-Acetoxy-7-ethoxy-2,3-dimethyl-9-phenyl-7,8,9,10-tetrahydroimidazo-[1,2-h][1,7]naphthyridine]	182 to 184
CO[C@@H]1c2ccn3c(C)c(C)nc3c2N[C@H](c2ccccc2)[C@H]1OC(=O)c1ccccc1 [Example 10, (7R,8R,9R)-8-Benzoyloxy-7-methoxy-2,3-dimethyl-9-phenyl-7,8,9,10-tetrahydro-imidazo[1,2-h][1,7]naphthyridine]	82 to 84
CO[C@H]1c2ccn3c(C)c(C)nc3c2N[C@H](c2ccccc2)[C@H]1OC(=O)c1ccccc1 [Example 11, (7S,8R,9R)-8-Benzoyloxy-7-methoxy-2,3-dimethyl-9-phenyl-7,8,9,10-tetrahydro-imidazo[1,2-h][1,7]naphthyridine]	78 to 80
CO[C@@H]1c2ccn3c(C)c(C)nc3c2N[C@H](c2ccccc2)[C@H]1OC(=O)c1cccc([N+](=O)[O-])c1 [Example 17, (7R,8R,9R)-7-Methoxy-2,3-dimethyl-8-(3-nitrobenzoyloxy)-9-phenyl-7,8,9,10-tetra-hydroimidazo[1,2-h][1,7]naphthyridine]	80 to 84
CCN(CC)C(=O)O[C@@H]1[C@@H](c2ccccc2)Nc2c(ccn3c(C)c(C)nc23)[C@@H]1OCCOC [Example 22, (7S,8R,9R)-7-(2-Methoxyethoxy)-8-(N,N-diethylaminocarbonyloxy)-2,3-dimethyl-9-phenyl-7,8,9,10-tetrahydroimidazo[1,2-h][1,7]naphthyridine]	50 to 52
COCCO[C@@H]1c2ccn3c(C)c(C)nc3c2N[C@H](c2ccccc2)[C@H]1OC(=O)OC1CC(C)CCC1C(C)C (stereo partly drawn) [Example 26, (7R,8R,9R)-8-[(+)-Menthyloxycarbonyloxy]-7-(2-methoxyethoxy)-2,3-dimethyl-9-phenyl-7,8,9,10-tetrahydroimidazo[1,2-h][1,7]naphthyridine]	127 to 129
COCCO[C@H]1c2ccn3c(C)c(C)nc3c2N[C@H](c2ccccc2)[C@H]1OC(=O)OC1CC(C)CCC1C(C)C (stereo partly drawn) [Example 27, (7S,8R,9R)-8-[(+)-Menthyloxycarbonyloxy]-7-(2-methoxyethoxy)-2,3-dimethyl-9-phenyl-7,8,9,10-tetrahydroimidazo[1,2-h][1,7]naphthyridine]	63 to 65
COCC(=O)O[C@@H]1[C@@H](c2ccccc2)Nc2c(ccn3c(C)c(C)nc23)[C@@H]1OC [Example 40, (7S,8R,9R)-2,3-Dimethyl-7-methoxy-8-methoxyacetyloxy-9-phenyl-7,8,9,10-tetrahydroimidazo[1,2-h][1,7]naphthyridine]	73 to 75
CCN(CC)C(=O)O[C@@H]1[C@@H](c2ccccc2)Nc2c(ccn3c(C)c(C)nc23)[C@H]1OC [Example 41, (7R,8R,9R)8-(N,N-Diethylaminocarbonyloxy)-2,3-dimethyl-7-methoxy-9-phenyl 7,8,9,10-tetrahydroimidazo[1,2-h][1,7]naphthyridine]	123 to 124
CCN(CC)C(=O)O[C@@H]1[C@@H](c2ccccc2)Nc2c(ccn3c(C)c(C)nc23)[C@@H]1OC [Example 42, (7S,8R,9R)8-(N,N-Diethylaminocarbonyloxy)-2,3-dimethyl-7-methoxy-9-phenyl 7,8,9,10-tetrahydroimidazo[1,2-h][1,7]naphthyridine]	97 to 98
COC(=O)O[C@@H]1[C@@H](c2ccccc2)Nc2c(ccn3c(C)c(C)nc23)[C@H]1OC [Example 43, (7R,8R,9R)7-Methoxy-8-methoxycarbonyloxy-2,3-dimethyl-9-phenyl 7,8,9,10-tetrahydroimidazo[1,2-h][1,7]naphthyridine]	178 to 179
COC(=O)O[C@@H]1[C@@H](c2ccccc2)Nc2c(ccn3c(C)c(C)nc23)[C@@H]1OC [Example 44, (7S,8R,9R)7-Methoxy-8-methoxycarbonyloxy-2,3-dimethyl-9-phenyl 7,8,9,10-tetrahydroimidazo[1,2-h][1,7]naphthyridine]	90 to 91
CO[C@@H]1c2ccn3c(C)c(C)nc3c2N[C@H](c2ccccc2)[C@H]1OC=O [Example 45, (7R,8R,9R)-2,3-Dimethyl-8-formyloxy-7-methoxy-9-phenyl-7,8,9,10-tetrahydro-imidazo[1,2-h][1,7]naphthyridine]	152 to 153
CO[C@@H]1c2ccn3c(C)c(C)nc3c2N[C@H](c2ccccc2)[C@H]1OC(=O)c1ccccc1 [Example 47, (7R,8R,9R)-8-Benzoyloxy-2,3-dimethyl-7-methoxy-9-phenyl-7,8,9,10-tetrahydro-imidazo[1,2-h][1,7]naphthyridine]	92 to 93

Further lines, results first:

melting point [°C]	Compound
106 to 107	CCC(=O)O[C@@H]1[C@@H](c2ccccc2)Nc2c(ccn3c(C)c(C)nc23)[C@H]1OCCOC [Example 5, (7R,8R,9R)-7-(2-Methoxyethoxy)-2,3-dimethyl-9-phenyl-8-propionyloxy-7,8,9,10-tetrahydroimidazo[1,2-h][1,7]naphthyridine]
78 to 80	COCCO[C@H]1c2ccn3c(C)c(C)nc3c2N[C@H](c2ccccc2)[C@H]1OC(=O)c1ccccc1 [Example 7, (7S,8R,9R)-8-Benzoyloxy-7-(2-methoxyethoxy)-2,3-dimethyl-9-phenyl-7,8,9,10tetrahydroimidazo[1,2-h][1,7]naphthyridine]
176 to 177	COCCO[C@@H]1c2ccn3c(C)c(C)nc3c2N[C@H](c2ccccc2)[C@H]1OC(=O)OC [Example 8, (7R,8R,9R)-8-Methoxycarbonyloxy-7-(2-methoxyethoxy)-2,3-dimethyl-9-phenyl-7,8,9,10-tetrahydroimidazo[1,2-h][1,7]naphthyridine]
133 to 134	COCCO[C@@H]1c2ccn3c(C)c(C)nc3c2N[C@H](c2ccccc2)[C@H]1OC(=O)c1ccc([N+](=O)[O-])cc1 [Example 12, (7R,8R,9R)-7-(2-Methoxyethoxy)-2,3-dimethyl-8-(4-nitrobenzoyloxy)-9-phenyl-7,8,9,10-tetrahydroimidazo[1,2-h][1,7]naphthyridine]
82 to 83	COCCO[C@H]1c2ccn3c(C)c(C)nc3c2N[C@H](c2ccccc2)[C@H]1OC(=O)c1ccc(OC)cc1 [Example 18, (7S,8R,9R)-7-(2-Methoxyethoxy)-2,3-dimethyl-8-(4-methoxybenzoyloxy)-9-phenyl-7,8,9,10-tetrahydroimidazo[1,2-h][1,7]naphthyridine]
150 to 151	COCCO[C@@H]1c2ccn3c(C)c(C)nc3c2N[C@H](c2ccccc2)[C@H]1OC(=O)c1ccc(OC)cc1 [Example 19, (7R,8R,9R)-7-(2-Methoxyethoxy)-2,3-dimethyl-8-(4-methoxybenzoyloxy)-9-phenyl-7,8,9,10-tetrahydroimidazo[1,2-h][1,7]naphthyridine]
114 to 115	COCCO[C@@H]1c2ccn3c(C)c(C)nc3c2N[C@H](c2ccccc2)[C@H]1OC(=O)CN(C)C [Example 20, (7R,8R,9R)-7-(2-Methoxyethoxy)-2,3-dimethyl-8-(N,N-dimethylaminomethyl-carbonyloxy)-9-phenyl-7,8,9,10-tetrahydroimidazo[1,2-h][1,7]naphthyridine]
206 to 207	COCCO[C@H]1c2ccn3c(C)c(C)nc3c2N[C@H](c2ccccc2)[C@H]1OC(=O)CN(C)C [Example 21, (7S,8R,9R)-7-(2-Methoxyethoxy)-2,3-dimethyl-8-(N,N-dimethylaminomethyl-carbonyloxy)-9-phenyl-7,8,9,10-tetrahydroimidazo[1,2-h][1,7]naphthyridine]

— US7189736B2, “Prodrugs of imidazopyridine derivatives” (Altana Pharma AG, priority 2000, dated 2007)
